Source: article PMC7004148, “Flexible Fragment Growing Boosts Potency of Quorum‐Sensing Inhibitors against Pseudomonas aeruginosa Virulence” (Chemmedchem, 2019)
Several values for one entry are separate records, joined by “and”; a condition that tells them apart may be missing. Equal entries are not always repeated. Where two headings read alike, the source gives them in different places.

Tests used:
PqsR [1] = biological target: T1, PqsR (Pseudomonas aeruginosa, UniProt Q9I4X0); assay: biochemical; type: binding; set-up: H6SUMOPqsRc87 and T265A mutant H6SUMOPqsRc87 for ITC studies was expressed; made in house; host or cells: E. coli BL21 (λDE3)
Method: 3.2 Expression and Purification of H6SUMOPqsRc87
(§1) H6SUMOPqsRc87 and T265A mutant H6SUMOPqsRc87 for ITC studies was expressed and purified as previously reported.[8,9] Briefly, E. coli BL21 (λDE3) transfected with the pSUMO3_ck4_pqsRC87 or pSUMO3_ck4_T265ApqsRC87 plasmid[8] were grown in LB medium containing 50 µg mL-1 kanamycin at 37 °C to an OD600 of approximately 0.8 and expression was induced with 0.2 mM IPTG for 16 h at 16 °C. The protein was purified using nickel affinity chromatography in a one step gradient.
ITC titrations were performed as described before.[8,9] Briefly, ITC experiments were carried out using an ITC200 instrument (Microcal Inc., GE Healthcare). The titrations were performed on 50-150 µM H6SUMO-PqsRC87 in the 200 µL sample cell using 19 injections of 2 µL ligand solution (0.5-1.5 mM) every 180 s. The data were collected and the area under each peak was integrated. To correct for heats of dilution and mixing the final base line consisting of small peaks of the same size at the end of the titration were substracted.
Target sequence in this assay (Q9I4X0 87-332): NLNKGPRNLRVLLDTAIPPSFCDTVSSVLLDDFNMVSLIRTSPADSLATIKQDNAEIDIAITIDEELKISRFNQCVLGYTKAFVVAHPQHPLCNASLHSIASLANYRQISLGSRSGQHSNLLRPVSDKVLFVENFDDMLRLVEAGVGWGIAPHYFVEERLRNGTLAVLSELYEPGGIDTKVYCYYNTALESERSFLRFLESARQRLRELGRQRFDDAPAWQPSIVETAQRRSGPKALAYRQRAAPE

PqsR [2] = biological target: T1, PqsR; assay: PqsR β-galactosidase reporter gene assay in E. coli; type: cell-based; set-up: expressed in transfected cells; host or cells: E. coli DH5α carrying plasmid pEAL08-2; details: in the presence of 50 nM PQS; for IC50 (inverse agonistic/antagonistic activity): n.i.=no inhibition (activity≤15 %)
Method: 5. E. coli reporter-gene assay & dose-response curves
PqsR Reporter gene assay in E. coli. The inverse agonistic/antagonistic activity of potential PqsR ligands was evaluated in a β-galactosidase reporter gene assay in E. coli as previously described.[26] In short, test compounds were co-incubated with E. coli DH5α cells containing the plasmid pEAL08-2,[27] which expresses PqsR and the β-galactosidase LacZ under the control of the pqsA promoter. The inverse agonistic/antagonistic activity of compounds was measured in the presence of 50 nM PQS. After incubation, galactosidase activity was quantified photometrically and expressed as ratio of controls. The given IC50 values represent the mean of at least two independent experiments using at least eight different concentrations of test compound with n = 4. Non-linear regression analysis was done using the log (inhibitor) vs response model included in the GrapPad Prism 5.0 software package.
Target sequence in this assay (Q9I4X0 whole entry): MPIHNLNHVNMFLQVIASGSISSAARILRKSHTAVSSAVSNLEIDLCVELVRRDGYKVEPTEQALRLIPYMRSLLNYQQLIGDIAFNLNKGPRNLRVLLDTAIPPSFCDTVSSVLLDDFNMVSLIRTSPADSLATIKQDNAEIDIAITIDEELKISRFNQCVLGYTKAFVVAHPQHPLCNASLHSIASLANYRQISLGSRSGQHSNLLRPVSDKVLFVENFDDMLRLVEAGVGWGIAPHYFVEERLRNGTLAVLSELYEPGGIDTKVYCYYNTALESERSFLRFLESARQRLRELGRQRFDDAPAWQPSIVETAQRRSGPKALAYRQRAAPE

[3] = tested on: pyocyanin in P. aeruginosa PA14; assay: Pyocyanin assay in P. aeruginosa PA14 cultures; type: cell-based, Pseudomonas aeruginosa PA14; details: for IC50: mean of at least two independent experiments, SD<25 %
Method: 6. Effects in P. aeruginosa
Pyocyanin Assay. The inhibition of virulence factor pyocyanin was measured as described previously[26] following a procedure established by Essar et al.[28] Briefly, Pseudomonas aeruginosa PA14 cultures were grown in the presence of inhibitors or DMSO as control for 16 h. Pyocyanin was determined photometrically after extraction of the cultures with chloroform and re-extraction with 0.2 M HCl. Protonated red colored pyocyanin was determined by measuring OD520 and normalizing to OD600. None of the compound impaired bacterial viability as observed by the OD600 parameter. Inhibition values were expressed in relation to the DMSO control. Each value is the mean of at least two independent experiments with n=3.
The given IC50 values represent the mean of at least two experiments using at least five different concentrations. Curve fitting was performed using the log (inhibitor) vs response model with constrained bottom = 0 and top =100 (GraphPad Prism 5.0).
Figure S4: Inhibition of virulence factor pyocyanin was evaluated in the clinical isolate PA14.
Representative dose-response curves a) compound 11 b) compound 20. Black dotes (•) represent the reduction of pyocyanin in presents of a given compound concentration relative to DMSO control (= 0 %). The continuous black line is the none -linear regression analysis to […]
(1 picture or pasted object on this page, not shown here)

[4] = tested on: HQNO levels in PA14pqsH strain; assay: HQNO quantification in PA14pqsH cultures (UHPLC-MS/MS); type: cell-based; details: Pseudomonas aeruginosa, read-out: HQNO inhibition
Method: (§2) determine IC50 values using a log (inhibitor) vs. response model with constrains (bottom = 0; top =100) (Graph Pad Prism 5.04).
(§3) HHQ and HQNO Quantification. Extracellular HHQ and HQNO were measured as previously reported[29] following a modified procedure of Lépine et al.:[30] Briefly, P. aeruginosa PA14pqsH cultures were grown in the presence of DMSO as a control or DMSO solutions of inhibitors for 17 h. HHQ and HQNO were quantified from ethyl acetate extracts using 5,6,7,8-tetradeutero-2-heptyl-4(1H)-quinolone (HHQ-d4) as internal standard (IS).
(§4) UHPLC-MS/MS analysis was performed as described in detail by Storz et al.[31] The following ions were monitored (mother ion [m/z], product ion [m/z], scan time [s], scan width [m/z], […]
(§5) quantification was performed using Xcalibur software with the use of a calibration curve relative to the area of the IS. Given data represent the mean of at least two independent experiments with n=3 and were expressed as percentage inhibition relative to DMSO control.

PqsRT265A = biological target: T2, PqsRT265A (Pseudomonas aeruginosa, UniProt Q9I4X0, T265A); assay: ITC thermodynamic signature, PqsRwt versus PqsRT265A mutant; type: binding; details: comparison of thermodynamic signatures (SI, Figure S3)
T2 construct: H6SUMOPqsRc87 and T265A mutant H6SUMOPqsRc87 for ITC studies was expressed; made in house; host or cells: E. coli BL21 (λDE3)
T2 sequence (Q9I4X0 87-332 T265A): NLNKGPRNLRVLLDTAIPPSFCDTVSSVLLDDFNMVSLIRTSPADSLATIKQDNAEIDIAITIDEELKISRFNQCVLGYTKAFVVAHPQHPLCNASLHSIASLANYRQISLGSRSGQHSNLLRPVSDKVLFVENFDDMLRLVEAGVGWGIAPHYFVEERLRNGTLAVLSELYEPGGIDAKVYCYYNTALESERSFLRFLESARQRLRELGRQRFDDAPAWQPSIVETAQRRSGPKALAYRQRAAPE
Method: 3. Isothermal Titration Calorimetry
3.1 Site-directed Mutagenesis: PqsRT265A mutant
The plasmid pSUMO3_ck4_T265ApqsRC87 was generated as previously described[8] using QuikChange Site-Directed Mutagenesis Kit (Stratagene) following the manufacturer’s instructions. The following primer were used: forward 5'
3. PCR condition to amplify the T265A gene: 16 cycles with 35s denaturation at 95 °C, 60 s annealing at 55 ° C, and 13 min extension. The generated plasmid was transformed via electroporation into E. coli BL21 3.2 Expression and Purification of H6SUMOPqsRc87
as §1
ITC titrations were performed as described before.[8,9] Briefly, ITC experiments were carried out using an ITC200 instrument (Microcal Inc., GE Healthcare). The titrations were performed on 50-150 µM H6SUMO-PqsRC87 in the 200 µL sample cell using 19 injections of 2 µL ligand solution (0.5-1.5 mM) every 180 s. […]

[5] = tested on: HHQ levels in PA14pqsH strain; assay: HHQ quantification in PA14pqsH cultures (UHPLC-MS/MS); type: cell-based; details: Pseudomonas aeruginosa, read-out: HHQ inhibition
Method: as §2, §3, §4, §5

[6] = Table 1, EE=−ΔH/(heavy atom count)
[7] = Table 1, LE=−ΔG/(heavy atom count)

| SMILES | Kd (PqsR [1]) | EE (PqsR [1]; [6]) | ΔG (PqsR [1]; Table 1, ITC at 298 K) | ΔH (PqsR [1]; Table 1, ITC at 298 K) | −TΔS (PqsR [1]; Table 1, ITC at 298 K) | LE (PqsR [1]; [7]) | also measured |
| --- | --- | --- | --- | --- | --- | --- | --- |
| CC(C)(C)c1ccc(C(=O)NO)cc1 [Compound 1] | 4.1 ± 0.6 µM | 0.63 kcal/mol | -7.4 ± 0.1 kcal/mol | -8.9 ± 0.2 kcal/mol | 1.5 ± 0.3 kcal/mol | 0.53 kcal/mol | – |
| Nc1nnc(-c2cccc(C(F)(F)F)c2)o1 [Compound 2] | 1.3 ± 0.3 µM | 0.53 kcal/mol | -8.0 ± 0.1 kcal/mol | -8.5 ± 0.5 kcal/mol | 0.4 ± 0.6 kcal/mol | 0.50 kcal/mol | – |
| Nc1cccc(Br)n1 [Compound 3] | 10 ± 1.3 µM | 1.17 kcal/mol | -6.8 ± 0.1 kcal/mol | -9.3 ± 0.4 kcal/mol | 2.5 ± 0.4 kcal/mol | 0.85 kcal/mol | IC50 (inverse agonistic/antagonistic activity) (PqsR [2]): did not show significant antagonistic activity |
| Nc1ccc(Br)cn1 [Compound 4] | > 50 µM | – | – | – | – | – | – |
| Nc1cc(Br)ccn1 [Compound 5] | 21.3 ± 3.4 µM | 0.72 kcal/mol | -6.4 ± 0.1 kcal/mol | -5.8 ± 0.1 kcal/mol | -0.6 ± 0.2 kcal/mol | 0.80 kcal/mol | – |
| Nc1ncccc1Br [Compound 6] | > 50 µM | – | – | – | – | – | – |
| Nc1cccc(C(F)(F)F)n1 [Compound 7] | 3.1 ± 0.5 µM | 1.05 kcal/mol | -7.5 ± 0.1 kcal/mol | -11.5 kcal/mol and -11.5 ± 0.9 kcal/mol | 3.7 ± 1 kcal/mol | 0.70 kcal/mol | inhibition at 250 µM ([3]; Pseudomonas aeruginosa, PA14, read-out: Pyocyanin inhibition): 43% |
| CC(=O)Nc1cccc(C(F)(F)F)n1 [Compound 8] | – | – | – | – | – | – | IC50 (inverse agonistic/antagonistic activity) (PqsR [2]): n.i.; K D (ITC) (PqsR [1]; Table 1, ITC at 298 K, mean±SD, at least two independent experiments, >50 = no heat release detectable at solubility maximum): abolished the affinity |
| Nc1cc(C#CC2CC2)cc(C(F)(F)F)n1 [Compound 9] | 7.5 ± 0.1 µM | – | – | – | – | – | IC50 (inverse agonistic/antagonistic activity) (PqsR [2]): n.i.; -TΔS (PqsR [1]; Table S1): -3.8 ± 0.6 kcal/mol; ΔG (PqsR [1]; Table S1): -6.9 ± 0.0 kcal/mol; ΔH (PqsR [1]; Table S1): -3.7 ± 0.6 kcal/mol and -3.7 kcal/mol; EE (PqsR [1]; Table S1, enthalpic efficiency): 0.23 kcal/mol; LE (PqsR [1]; Table S1, ligand efficiency): 0.43 kcal/mol |
| Nc1cc(-c2ccc(F)cc2)cc(C(F)(F)F)n1 [Compound 10] | – | – | – | – | – | – | Inverse agonistic/antagonistic activity at a given concentration (PqsR [2]; @ 100 μM): 29 % @ 100 μM |
| Nc1cc(NCc2ccc(F)cc2)cc(C(F)(F)F)n1 [Compound 11] | 0.6 ± 0.2 µM | – | – | – | – | – | -TΔS (PqsR [1]; Table S1): 1.0 ± 0.8 kcal/mol; ΔG (PqsR [1]; Table S1): -8.4 ± 0.2 kcal/mol; ΔH (PqsR [1]; Table S1): -9.8 ± 0.8 kcal/mol; EE (PqsR [1]; Table S1, enthalpic efficiency): 0.49 kcal/mol; LE (PqsR [1]; Table S1, ligand efficiency): 0.42 kcal/mol; IC50 ([3]; Pseudomonas aeruginosa, PA14, read-out: Pyocyanin IC50, PA14 cultures, photometric quantification): 105 ± 13 µM; IC50 ([3]; read-out: Pyocyanin IC50, PA14 cultures, photometric quantification): 102 µM; inhibition at 200 µM [4]: 36 ± 3%; Enthalpic contribution, PqsRwt versus PqsRT265A (PqsRT265A): no significant difference in the enthalpic contribution; inhibition at 200 µM [5]: 48 ± 4% |
